Where a name gives a salt, the structure may show the parent alone. Read-outs that look alike come from different tables or passages of the source.
Assays:
Type in all cases: cell-based
A2780/DDP = assay: Antiproliferative activity in human tumor cell lines: A2780/DDP (ovarian); conditions: PROTOCOL 1 and PROTOCOL 2, 48 hours
Method: (§1) The assays are identified as follows:
(§2) PROTOCOL 1,2,and 3 are described in greater detail hereinbelow. In general, according to PROTOCOLS 1 and 2, the target ABAE and/or Human Tumor cells are exposed to the compounds of Formula I for 48 hours. PROTOCOL 3 exposes ABAE cells to the compounds for 4 days. A detailed description of the protocols is as follows:
(§3) The antiproliferative activity of the compounds of Formula I of the present invention is evaluated in a panel comprised of human tumor cell lines and an adult bovine aortic endothelial cell line (ABAE). The human tumor cell lines are from
(§4) Cultures are renewed after 20 passages with cells from a fresh stock of batch-frozen early passage cells. Cell lines are routinely checked for mycoplasma contamination (Genprobe). In a laminar flow hood, cells (1-5×10^4) are plated into 96-well microtiter plates in a volume of 0.1 ml/well with a bulk microtiter dispenser (Denley). […] Compounds are added using a Tomtec dispenser which simultaneously dispenses from one 96-well plate, containing the drug dilutions, to the plates containing the cells. After two days of continuous drug exposure, 50% cold trichloroacetic acid (TCA) is added to 10% final concentration to fix the cells, and after 60 minutes at 4° C., the TCA is aspirated and the plates are washed 5 times with deionized water using a microtiter plate washer. […] A 0.4% solution of the dye, sulforhodamine B, in […] is added to the plates, and the plates are washed 5 times with 1% glacial acetic acid using the automatic plate washed. The bound stain is solubilized with 0.1 ml of 10 mM Tris base. The optical densities are read from an automatic spectrophotometric plate reader (Dynatech) directly to a main frame computer (VAX 8600).
(§5) Positive controls, that include standard chemotherapeutic drugs (i.e., Adriamycin, Cisplatin, etc.), are included in every experiment.
(§6) Background optical density measurements (complete media-cells, and complete media+drug-cells) are automatically subtracted from the appropriate control and test wells. Mean values and standard errors are determined from duplicate wells. A measure is also made of the optical density at time when the drugs are added. The number of cells after treatment (P), as % of control, is calculated for every concentration of drug, as follows: [formula] wherein: T is optical density measurement for treated cells after 48 hours;
(§7) C is optical density measurement for untreated cells after 48 hours;
(§8) Co is optical density measurement for cells at the time of drug addition.
(§9) IC50 of growth inhibition is calculated from the sets of P values using the RS-1 data package (BBN Software).
(§10) The antiproliferative activity of the compounds of Formula I is evaluated in a panel comprised of human tumor cell lines and an adult bovine aortic cell line (ABAE) as listed in PROTOCOL 1. This assay is a modification of PROTOCOL 1. The modifications include:
(§11) 1) each concentration for each compound is tested in a single well;
(§12) 2) compounds are tested at 20, 4, 0.8, 0.16 microgram/ml and additionally in some experiments at 100 and 0.32 microgram/ml;
(§13) 3) samples are pipetted into a 96-well plate for each of the cell lines by a Beckman Biomek 1000 SL robot;
(§14) 4) after fixing with TCA each well is washed with 0.35 ml distilled water twice, not five times;
(§15) 5) after staining with sulforhodamine B each well is washed 3 times, not five times;
(§16) 6) the growth inhibition (I) as % of control, is calculated using the RS-1 data package (BBN Software), for every concentration of drug, as follows: [formula] wherein: T is optical density measurement for treated cells after 48 hours;
(§17) 7) IC50 of growth inhibition is determined graphically from dose response curves, as is known in the art.

CACO2 = assay: Antiproliferative activity in human tumor cell lines: CACO2 (colon); conditions: Homo sapiens
Method: (§18) The antiproliferative activity of the compounds of Formula I in an Adult Bovine Aortic Endothelial (ABAE) cell line and in Human Tumor cell lines is evaluated in three similar assays that measure growth inhibition. The assays are identified as follows:
as §2, §3
(§19) All cell lines are maintained in log phase in RPMI 1640 media, supplemented with 5% fetal calf serum, penicillin/streptomycin and 2 mM L-glutamine. Cultures are renewed after 20 passages with cells from a fresh stock of batch-frozen early passage cells. Cell lines are routinely checked for mycoplasma contamination (Genprobe). In a laminar flow hood, cells (1-5×10^4) are plated into 96-well microtiter plates in a volume of 0.1 ml/well with a bulk microtiter dispenser (Denley). […] At this concentration, dimethylsulfoxide has no effect on cell growth. Compounds are added using a Tomtec dispenser which simultaneously dispenses from one 96-well plate, containing the drug dilutions, to the plates containing the cells. After two days of continuous drug exposure, 50% cold trichloroacetic acid (TCA) is added to 10% final concentration to fix the cells, and after 60 minutes at 4° C., the TCA is aspirated and the plates are washed 5 times with deionized water using a microtiter plate washer. The number of cells on the plate are quantitated using a protein dye-binding assay (Monks et al., 1991). A 0.4% solution of the dye, sulforhodamine B, in glacial acetic acid is added to the plates, and the plates are washed 5 times with 1% glacial acetic acid using the automatic plate washed. The bound stain is solubilized with 0.1 ml of 10 mM Tris base. The optical densities are read from an automatic spectrophotometric plate reader (Dynatech) directly to a main frame computer (VAX 8600).
as §5, §6, §7, §8, §9, §10, §11, §12, §13, §14
(§20) 5) after staining with sulforhodamine B each well is washed 3 times, not five times; […]

HTB 161 = assay: Antiproliferative activity in human tumor cell lines: HTB 161 (ovarian); conditions: HTB 161 ovarian tumor, PROTOCOL 1 and PROTOCOL 2, 48 hours
Method: as §1, §2, §3, §4, §5, §6, §7, §8, §9, §10, §11, §12, §13, §14, §15, §16, §17

MIP = assay: Antiproliferative activity in human tumor cell lines: MIP (colon); conditions: PROTOCOL 1 and PROTOCOL 2, 48 hours
Method: as §18, §2, §3, §19, §5, §6, §7, §8, §9, §10, §11, §12, §13, §14, §20

SW620 = assay: Antiproliferative activity in human tumor cell lines: SW620 (colon)
Method: as §18, §2, §3, §19, §5, §6, §7, §8, §9, §10, §11, §12, §13, §14, §20

Human Tumor cell lines = assay: Antiproliferative activity in the panel of human tumor cell lines; conditions: for IC50: Homo sapiens, average over the 6 tumor cell lines
Method: as §18, §2, §3, §19, §5, §6, §7, §8, §9, §10, §11, §12, §13, §14, §20

A2780S = assay: Antiproliferative activity in human tumor cell lines: A2780S (ovarian); conditions: PROTOCOL 1 and PROTOCOL 2, 48 hours
Method: as §1, §2, §3, §4, §5, §6, §7, §8, §9, §10, §11, §12, §13, §14, §15, §16, §17

[1] = Caco-2, CACO2 colon tumor, PROTOCOL 1 and PROTOCOL 2, 48 hours, read-out: IC50
[2] = SW-620, SW620 colon tumor, PROTOCOL 1 and PROTOCOL 2, 48 hours, read-out: IC50

| Compound | IC50 (A2780/DDP) | IC50 (CACO2; [1]) | IC50 (HTB 161) | IC50 (MIP) | IC50 (SW620; [2]) | IC50 (Human Tumor cell lines) | IC50 (A2780S) | IC50 (CACO2; Caco-2, 48 h) | inhibition of cell growth at the highest concentrations (Human Tumor cell lines; FIG. 2, 6 Human Tumor cell lines, highest concentrations) | Dead floating cells (Human Tumor cell lines; at the highest concentration) | IC50 (SW620; SW-620, 48 h) |
| --- | --- | --- | --- | --- | --- | --- | --- | --- | --- | --- | --- |
| CN(C)CC(=O)Nc1c(Cl)cc2c(c1O)C(=O)C1=C(O)[C@]3(O)C(=O)C(C(N)=O)=C(O)[C@@H](N(C)C)C3CC1C2 (stereo partly drawn) [Example 3, [4S-(45, 12aα)]-8-Chloro-4-(dimethylamino)-9[[(dimethylamino)acetyl]amino]-1,4,4a,5,5a,6,11,12a-octahydro-3,10,12,12a-tetrahydroxy-1,11-dioxo-2-naphthacenecarboxamide disulfate] | 2.5 µg/mL | 1.65 µg/mL | 1 µg/mL | 2.2 µg/mL | 2.3 µg/mL | 1.9 µg/mL | 1.8 µg/mL |  |  |  |  |
| CCCCNCC(=O)Nc1c(Cl)cc2c(c1O)C(=O)C1=C(O)[C@]3(O)C(=O)C(C(N)=O)=C(O)[C@@H](N(C)C)C3CC1C2 (stereo partly drawn) [Example 4, [4S-(4α, 12aα)]-9-[[(Butylamino)acetyl]amino]-8-chloro-4-(dimethylamino) -1,4,4a,5,5a,6,11,12a-octahydro-3,10,12,12a-tetrahydroxy-1,11-dioxo-2-naphthacenecarboxamide dihydrochloride] | 2.8 µg/mL | 2.5 µg/mL | 1.2 µg/mL | 3.1 µg/mL | 2.8 µg/mL | 2.5 µg/mL | 2.5 µg/mL |  |  |  |  |
| CCCNCC(=O)Nc1c(Cl)cc2c(c1O)C(=O)C1=C(O)[C@]3(O)C(=O)C(C(N)=O)=C(O)[C@@H](N(C)C)C3CC1C2 (stereo partly drawn) [Example 5, [4S-(4α, 12aα)]-8-Chloro-4-(dimethylamino)-1,4,4a,5,5a, 6,11,12a-octahydro-3,10,12,12a-tetrahydroxy-1,11-dioxo-9-[[(propylamino)acetyl]amino]-2-naphthacenecarboxamide dihydrochloride] | 3 µg/mL |  | 4 µg/mL | 10 µg/mL | 3.5 µg/mL | 4.6 µg/mL | 3 µg/mL | 4 µg/mL | no 100% inhibition of cell growth | not observed |  |
| CCCCCNCC(=O)Nc1c(Cl)cc2c(c1O)C(=O)C1=C(O)[C@]3(O)C(=O)C(C(N)=O)=C(O)[C@@H](N(C)C)C3CC1C2 (stereo partly drawn) [Example 6, [4S-(4α, 12aα)]-8-Chloro-4-(dimethylamino)-1,4,4a,5,5a,6,11,12a-octahydro-3,10,12,12a-tetrahydroxy-1,11-dioxo-9-[[(pentylamino)acetyl]amino]-2-naphthacenecarboxamide dihydrochloride] | 0.7 µg/mL | 0.7 µg/mL | 0.5 µg/mL | 1.5 µg/mL |  | 0.8 µg/mL | 0.5 µg/mL |  |  |  | 0.8 µg/mL |
| CNCC(=O)Nc1c(Cl)cc2c(c1O)C(=O)C1=C(O)[C@]3(O)C(=O)C(C(N)=O)=C(O)[C@@H](N(C)C)C3CC1C2 (stereo partly drawn) [Example 7, [4S-(4α, 12aα)]-8-Chloro-4-(dimethylamino)-1,4,4a,5,5a,6,11,12a-octahydro-3,10,12,12a-tetrahydroxy-1,11-dioxo-9-[[(methylamino)acetyl]amino]-2-naphthacenecarboxamide dihydrochloride] | 3.8 µg/mL | 3.8 µg/mL | 1.3 µg/mL | 8.5 µg/mL | 4 µg/mL | 4.3 µg/mL | 4.6 µg/mL |  |  |  |  |
| CN(C)[C@@H]1C(O)=C(C(N)=O)C(=O)[C@@]2(O)C(O)=C3C(=O)c4c(cc(Cl)c(NC(=O)CNCC5CC5)c4O)CC3CC12 (stereo partly drawn) [Example 8, [4S-(4α,12aα)]-8-Chloro-9-[[(cyclopropylmethylamino)-acetyl]amino]4-(dimethylamino)-1,4,4a,5,5a,6,11,12a-octahydro-3,10,12,12a-tetrahydroxy-1,11-dioxo-2-naphthacenecarboxamide dihydrochloride] | 2.5 µg/mL | 2.8 µg/mL | 1 µg/mL | 3.8 µg/mL | 2.4 µg/mL | 2.45 µg/mL | 2.2 µg/mL |  |  |  |  |
| CN(C)[C@@H]1C(O)=C(C(N)=O)C(=O)[C@@]2(O)C(O)=C3C(=O)c4c(cc(Cl)c(NC(=O)CN5CCCC5)c4O)CC3CC12 (stereo partly drawn) [Example 9, [7S-(7α,10aα)]-N-[9-(Aminocarbonyl)-3-chloro-7-(dimethylamino)-5,5a,6,6a,7,10,10a,12-octahydro-1,8,10a,11-tetrahydroxy-10,12-dioxo-2-naphthacenyl]-1-pyrrolidineacetamide dihydrochloride] | 1 µg/mL | 1.7 µg/mL | 1.9 µg/mL | 0.8 µg/mL |  | 1.45 µg/mL | 1.3 µg/mL |  |  |  | 2 µg/mL |
| CN(C)[C@@H]1C(O)=C(C(N)=O)C(=O)[C@@]2(O)C(O)=C3C(=O)c4c(cc(Cl)c(NC(=O)CN5CCCCC5)c4O)CC3CC12 (stereo partly drawn) [Example 10, 7S-(7α,10aα)]-N-[9-(Aminocarbonyl)-3-chloro-7-(dimethylamino)-5,5a,6,6a,7,10,10a,12-octahydro-1,8,10a,11-tetrahydroxy-10,12-dioxo-2-naphthacenyl]-1-piperidineacetamide dihydrochloride] | 0.6 µg/mL | 0.65 µg/mL | 0.6 µg/mL | 0.7 µg/mL |  | 0.6 µg/mL | 0.5 µg/mL |  |  |  | 0.6 µg/mL |
| CN(C)c1c(Cl)cc(O)c2c1CC1CC3[C@H](N(C)C)C(O)=C(C(N)=O)C(=O)[C@@]3(O)C(O)=C1C2=O (stereo partly drawn) [Example 11, [4S-(4α,12aα)]-8-Chloro-4,7-bis(dimethylamino)-1,4,4a,5,5a,6,11,12a-octahydro-3,10,12,12a-tetrahydroxy-1,11-dioxo-2-naphthacenecarboxamide sulfate] | 3.85 µg/mL | 3.6 µg/mL | 0.7 µg/mL | 2.6 µg/mL | 4.5 µg/mL | 2.8 µg/mL | 1.6 µg/mL |  |  |  |  |

From patent publication US5567693A, “Method for inhibiting angiogenesis, proliferation of endothelial or tumor cells and tumor growth” (American Cyanamid Company, priority 1994, dated 1996)
